What was measured:
[1] = biological target: T1, Nuclear receptor ROR-gamma (Mus musculus, UniProt P51450); assay: Inverse agonist activity at RORgammat in mouse Th17 cells assessed as effect on cell differentiation measured as IL-17 level after 3 days by ELISA; assay type: cell-based
T1 sequence (P51450 whole entry): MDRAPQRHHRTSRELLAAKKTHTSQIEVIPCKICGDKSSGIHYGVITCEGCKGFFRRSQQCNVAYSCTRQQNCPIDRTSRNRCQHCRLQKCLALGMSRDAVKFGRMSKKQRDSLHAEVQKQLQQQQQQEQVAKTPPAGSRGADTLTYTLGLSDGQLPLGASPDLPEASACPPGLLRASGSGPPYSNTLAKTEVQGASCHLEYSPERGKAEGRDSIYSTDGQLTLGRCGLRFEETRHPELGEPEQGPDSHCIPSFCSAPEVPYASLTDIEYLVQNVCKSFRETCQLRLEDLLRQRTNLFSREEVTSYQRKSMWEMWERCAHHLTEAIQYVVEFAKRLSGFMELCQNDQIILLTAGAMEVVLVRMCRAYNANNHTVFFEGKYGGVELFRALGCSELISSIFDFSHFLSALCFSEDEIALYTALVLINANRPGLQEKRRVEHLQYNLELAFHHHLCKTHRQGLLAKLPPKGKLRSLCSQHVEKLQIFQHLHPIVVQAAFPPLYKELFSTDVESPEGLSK

[2] = biological target: T2, Nuclear receptor ROR-gamma (Homo sapiens, UniProt P51449)
T2 sequence (P51449 whole entry): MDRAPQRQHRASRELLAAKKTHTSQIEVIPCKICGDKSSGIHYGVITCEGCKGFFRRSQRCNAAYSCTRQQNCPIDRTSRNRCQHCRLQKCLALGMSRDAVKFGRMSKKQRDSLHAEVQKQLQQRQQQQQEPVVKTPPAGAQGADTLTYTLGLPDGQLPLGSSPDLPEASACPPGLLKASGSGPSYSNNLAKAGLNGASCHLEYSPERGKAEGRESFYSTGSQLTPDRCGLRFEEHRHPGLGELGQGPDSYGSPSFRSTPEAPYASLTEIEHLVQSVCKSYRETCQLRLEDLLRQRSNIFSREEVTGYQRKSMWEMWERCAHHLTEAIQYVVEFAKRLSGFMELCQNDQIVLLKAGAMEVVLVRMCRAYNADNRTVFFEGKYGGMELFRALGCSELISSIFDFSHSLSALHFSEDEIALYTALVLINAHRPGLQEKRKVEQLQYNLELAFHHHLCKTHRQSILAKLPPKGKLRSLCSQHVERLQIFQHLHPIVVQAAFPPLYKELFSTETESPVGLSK
Description: Inverse agonist activity at biotinylated human RORgammat expressed in Escherichia coli BL21 assessed as effect on recruitment of SRC1/2 after 1 hr by dual-FRET assay

[3] = biological target: T2, Nuclear receptor ROR-gamma; remark: listed apart in the source
Description: Inverse agonist activity at biotinylated human RORgammat LBD expressed in Escherichia coli BL21 assessed as inhibition of SRC1 recruitment after 1 hr by FRET assay in presence of N-(2-chloro-6-fluorobenzyl)-N-((2'-methoxy-[1,1'-biphenyl]-4-yl)methyl)benzenesulfonamide

[4] = biological target: T3, Nuclear receptor ROR-gamma (Homo sapiens) (UniProt P51449)
T3 sequence (whole entry): T2 sequence (P51449 whole entry)
Description: Binding affinity to human RORgammat expressed in Escherichia coli BL21 assessed as melting temperature by thermal shift assay

IC50 [1] [nM] | SMILES | also measured
70 | CCS(=O)(=O)c1ccc(CC(=O)Nc2ccc3c(ccn3CCc3ccc(OC(C)C)cc3)c2)cc1 | 
31 | CCS(=O)(=O)c1ccc(CC(=O)Nc2ccc3c(ccn3CCc3ccc(C(F)(F)F)cc3)c2)cc1 | 
 | CCS(=O)(=O)c1ccc(CC(=O)Nc2nc(-c3cc(Cl)ccc3Cl)cs2)cc1 | IC50 [2]: 1000 nM; IC50 [3]: 1000 nM; ΔTm [4]: 7.1 °C
733 | CCCN(CCc1ccc(C(F)(F)F)cc1)c1ccc(NC(=O)Cc2ccc(S(=O)(=O)CC)cc2)cc1 | 
1020 | CCS(=O)(=O)c1ccc(CC(=O)Nc2ccc(NCCc3ccc(C(F)(F)F)cc3)c(Cl)c2)cc1 | 
40 | CCS(=O)(=O)c1ccc(CC(=O)Nc2ccc3c(ccn3CCc3ccc(Cl)c(Cl)c3)c2)cc1 | 
457 | CCS(=O)(=O)c1ccc(CC(=O)Nc2ccc3c(ccn3CCc3ccc(C#N)cc3)c2)cc1 | 
164 | CCS(=O)(=O)c1ccc(CC(=O)Nc2ccc3c(ccn3CCc3ccc(Cl)cc3)c2)cc1 | 
 | CCCN(Cc1ccc(C)cc1)Cc1ccc(NC(=O)Cc2ccc(S(=O)(=O)CC)cc2)cc1 | EC50 [2]: 25 nM; IC50 [3]: > 25000 nM
> 10000 | CCS(=O)(=O)c1ccc(CC(=O)Nc2ccc(CNCc3ccc(C(F)(F)F)cc3)cc2)cc1 | 
9 | CCS(=O)(=O)c1ccc(CC(=O)Nc2ccc3c(ccn3CCc3ccc(Cl)cc3Cl)c2)cc1 | 
320 | CCCN(Cc1ccc(NC(=O)Cc2ccc(S(=O)(=O)CC)cc2)cc1)Cc1ccc(C(F)(F)F)cc1 | 

— ChEMBL document CHEMBL3108708, “Discovery of Tertiary Amine and Indole Derivatives as Potent RORγt Inverse Agonists” (ACS Med Chem Lett, 2014)
